Test [1] deals with L1210 mouse leukemia cells transformed with the pHaMDR1/A retrovirus carrying a MDR1 cDNA. Briefly: cells. It counts as cell-based. The following applies: for MDR Ratio: IC50 Dox / IC50 Dox+Inhibitor, 2.5 μM compound; for IC50: Mus musculus, doxorubicin alone. As to the method:
To assay the ability of the compounds according to this invention to increase the antiproliferative activity of a drug, cell lines which are known to be resistant to a particular drug may be used. These cell lines include, but are not limited to, the L1210, P388D, CHO and MCF7 cell lines. Alternatively, resistant cell lines may be developed. The cell line is exposed to the drug to which it is resistant, or to the test compound; cell viability is then measured and compared to the viability of cells which are exposed to the drug in the presence of the test compound.
To carry out assays using L1210 mouse leukemia cells transformed with the pHaMDR1/A retrovirus carrying a MDR1 cDNA, we follow the procedure described by Pastan et al., Proc. Natl. Acad. Sci., Vol. 85, […] 4490 (1988). The resistant line, labelled L1210VMDRC.06, is obtained from Dr. M. M. Gottesman of the National Cancer Institute. Drug-resistant transfectants are selected by culturing cells in […] colchicine.
Multi-drug resistance assays are conducted by plating cells (2×10^3, 1×10^4, or 5×10^4 cells/well) in 96 well microtiter plates and exposing them to a concentration range of doxorubicin (50 nM-10 μM) in the presence or absence of multi-drug resistance modifier compounds ("MDR inhibitors") of this invention (1, 2.5 or 10 μM) as described in Ford et al., Cancer Res., Vol. 50, 1748-1756. (1990). After culture for 3 days, the viability of cells is quantitated using MTT (Mossman) or XTT dyes to assess mitochondrial function. Also see, Mossman T., J. Immunol. Methods, Vol. 65, 55-63 (1983).
Results are determined by comparison of the IC50 for doxorubicin alone to the IC50 for doxorubicin+MDR inhibitor. An MDR ratio is calculated (IC50 Dox/ IC50 Dox+Inhibitor) and the integer value used for comparison of compound potencies. […]

The target in the next test is FKBP12 (Homo sapiens, UniProt P62942). Briefly: FKBP12 binding assay (inhibition of rotomase activity). Format: biochemical. Conditions: apparent Ki.
FKBP12, sequence (P62942 whole entry, species assumed): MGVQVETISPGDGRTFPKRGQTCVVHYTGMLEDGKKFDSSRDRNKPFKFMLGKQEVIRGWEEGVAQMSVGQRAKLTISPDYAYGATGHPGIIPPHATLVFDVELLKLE
In test [2] the test system is multi-drug resistant ("MDR") cells. The following applies: cited from earlier work.
The test system of test [3] is rat pheochromocytoma cell line. Conditions: with NGF; cited from earlier work.
Another test relates to sensory ganglia. Conditions: cited from earlier work.
In test [4] the test system is FK506 binding protein or FKBP12. The following applies: cited from earlier work.
A further test relates to nerve cells. Conditions: cited from earlier work.

Molecules are shown by their SMILES. Where two headings read alike, the source gives them in different places.

`CCCOc1ccc(OCCC)c(-c2cncc([C@@H](CCCc3ccccc3)OC(=O)[C@@H]3CCCCN3C(=O)C(=O)c3cc(OC)c(OC)c(OC)c3)c2)c1` [Compound 22]: the figures for the “MDR Ratio” value in test [1] (Date 4/21/95) and in test [1] (Date 5/12/95) were 12.4 and 1.3, respectively. For the same compound, the Ki at FKBP12 came to 31 nM.
Consider `COc1cc(C(=O)C(=O)N2CCCC[C@H]2C(=O)O[C@H](CCCc2ccccc2)c2cncc(-c3c(OC)cccc3OC)c2)cc(OC)c1OC` [Compound 24], for which the “MDR Ratio” value in test [1] (Date 5/12/95) is more than 14.0. Besides, at FKBP12, the Ki is 0.5 nM.
On the same counts, the results for `CCC/C=C(/c1cccnc1)c1cccc([C@@H](CCN2CCOCC2)OC(=O)[C@@H]2CCCCN2C(=O)C(=O)c2cc(OC)c(OC)c(OC)c2)c1` [Compound 26] are 8.8 and 2.4 nM.
`CCC/C=C(/c1cccnc1)c1cccc([C@H](CCN2CCOCC2)OC(=O)[C@@H]2CCCCN2C(=O)C(=O)c2cc(OC)c(OC)c(OC)c2)c1` [Compound 27]: in test [1] (Date 5/12/95), the “MDR Ratio” value turned out to be 12.7. At FKBP12, the Ki stood at 260 nM.
On the same counts, the results for `CC/C=C(/c1cccnc1)c1cccc([C@H](CCCc2ccccc2)OC(=O)[C@@H]2CCCCN2C(=O)C(=O)c2cc(OC)c(OC)c(OC)c2)c1` [Compound 28] are 10.0 and 20 nM.
The like results for `CCC/C=C(\c1cccnc1)c1cccc([C@@H](CCN2CCOCC2)OC(=O)[C@@H]2CCCCN2C(=O)C(=O)c2cc(OC)c(OC)c(OC)c2)c1` [Compound 30] were, in that order, 14.0 and 27 nM.
The like results for `COc1cc(C(=O)C(=O)N2CCCC[C@H]2C(=O)O[C@H](/C(C)=C/[C@H]2CC[C@H](O)CC2)c2cncc(-c3c(OC)cccc3OC)c2)cc(OC)c1OC` [Compound 32] were, in that order, 11.7 and 9.8 nM.
For `COCc1cccc(COC)c1-c1cncc([C@@H](OC(=O)[C@@H]2CCCCN2C(=O)C(=O)c2ccco2)/C(C)=C/[C@H]2CC[C@H](O)CC2)c1` [Compound 40], in test [1] (Date 5/12/95), the “MDR Ratio” value stood at 2.5. The Ki at FKBP12 stood at 500 nM.
Consider `CCOCc1cc2ccccc2n1-c1cccc([C@@H](OC(=O)[C@@H]2CCCCN2C(=O)C(=O)c2ccco2)/C(C)=C/[C@H]2CC[C@H](O)CC2)c1` [Compound 43], for which the “MDR Ratio” value in test [1] (Date 5/12/95) is on record as 14.0. Also, the Ki at FKBP12 was found to be 180 nM.
Consider `C=CCC/C=C(/c1cccnc1)c1ccc([C@@H](OC(=O)[C@@H]2CCCCN2C(=O)C(=O)C(C)(C)C)/C(C)=C/C2CCN(C)CC2)s1` [Compound 52], for which the “MDR Ratio” value in test [1] (Date 4/21/95) turned out to be 5.8; in test [1] (Date 5/12/95), 4.1. For the same compound, the Ki on FKBP12 was 200 nM.
In the case of `COC/C=C(\c1cncc([C@@H](OC(=O)[C@@H]2CCCCN2C(=O)C(=O)CC(C)C)/C(C)=C/[C@H]2CC[C@H](O)CC2)c1)C1CCCCC1` [Compound 59], the “MDR Ratio” value in test [1] (Date 5/12/95) was 10.8. Further, the Ki on FKBP12 turned out to be 71 nM.
Take `CCOCc1cccc(COCC)c1-c1csc([C@H](CCN2CCOCC2)OC(=O)[C@@H]2CCCCN2C(=O)C(=O)C2CCOCC2)c1` [Compound 61]: the “MDR Ratio” value in test [1] (Date 5/12/95) is given as 2.5. The Ki on FKBP12 was more than 10000 nM.
As to `CCOCc1cccc(COCC)c1-c1cncc([C@H](CCN2CCOCC2)OC(=O)[C@@H]2CCCCN2C(=O)C(=O)C2(C)CCCCC2)c1` [Compound 76], in test [1] (Date 5/12/95), the “MDR Ratio” value was found to be 6.4. Besides, at FKBP12, the Ki came to 400 nM.
The like results for `CCOCc1cccc(COCC)c1-c1ccc([C@@H](CCN2CCOCC2)OC(=O)[C@@H]2CCCCN2C(=O)C(=O)C2(C)CCCCC2)s1` [Compound 79] were, in that order, 7.8 and 12 nM.
As for `CCOCc1cccc(COCC)c1-c1cncc(C(CCN2CCOCC2)OC(=O)[C@@H]2CCCCN2C(=O)C(=O)C(C)(C)C(C)C)c1` (stereo partly drawn) [Compound 89], in test [1] (Date 5/12/95), the “MDR Ratio” value is listed as 5.0. Further, the Ki on FKBP12 stood at 263 nM.
For the compound `C=CCC/C=C(/c1cccnc1)c1ccc(C(CCN2CCOCC2)OC(=O)[C@@H]2CCCCN2C(=O)C(=O)C(C)(C)C(C)C)s1` (stereo partly drawn) [Compound 90], the “MDR Ratio” value in test [1] (Date 5/12/95) was 7.4. Moreover, the Ki on FKBP12 stood at 9 nM.
On the same counts, the results for `C=CCC/C=C(\c1ccc(C(CCN2CCOCC2)OC(=O)[C@@H]2CCCCN2C(=O)C(=O)C(C)(C)C(C)C)s1)C1CCOCC1` (stereo partly drawn) [Compound 91] are 2.7 and 8 nM.
Take `CCC/C=C(\c1cncc(C(OC(=O)[C@@H]2CCCCN2C(=O)C(=O)C2(O)CCC(OC)CC2)/C(C)=C/c2ccncc2)c1)C1CCCCC1` (stereo partly drawn) [Compound 100]: the “MDR Ratio” value in test [1] (Date 5/12/95) is reported as less than 14.0. In addition, the Ki at FKBP12 is 380 nM.
On the same counts, the results for `CCCc1ccc(CCC)n1-c1cccc([C@@H](CCN2CCOCC2)OC(=O)[C@@H]2CCCCN2C(=O)C(=O)[C@@H]2CCCC[C@H]2C)c1` [Compound 105] are 5.4 and 94 nM.
On the same counts, the results for `CCCc1ccc(CCC)n1-c1cccc([C@@H](CCN2CCOCC2)OC(=O)[C@@H]2CCCCN2C(=O)C(=O)[C@@H]2C[C@H](C(C)(C)OC)CC=C2C)c1` [Compound 107] are 8.8 and 7600 nM.
On the same counts, the results for `CCCc1ccc(CCC)n1-c1cccc([C@@H](CCN2CCOCC2)OC(=O)[C@@H]2CCCCN2C(=O)C(=O)[C@@H]2C[C@H](OCC)CC[C@H]2C)c1` [Compound 111] are 9.3 and 800 nM.
Turning to `CCCCc1ccc(C)n1-c1cccc([C@@H](CCN2CCOCC2)OC(=O)[C@@H]2CCCCN2C(=O)C(=O)[C@@H]2C[C@H](C(C)(C)OC)CC[C@H]2C)c1` [Compound 112], the “MDR Ratio” value in test [1] (Date 5/12/95) is on record as 10.8. In addition, the Ki at FKBP12 is 930 nM.
The like results for `CCC/C(=C/COC)c1cncc([C@@H](CCN2CCOCC2)OC(=O)[C@@H]2CCCCN2C(=O)C(=O)C(C)(C)C(C)C)c1` [Compound 113] were, in that order, 7.0 and 61 nM.
Take `CCC/C(=C/COC)c1cncc([C@@H](CCN2CCOCC2)OC(=O)[C@@H]2CCCCN2C(=O)C(=O)[C@@H]2C[C@H](C(C)(C)OC)CC[C@H]2C)c1` [Compound 123]: the “MDR Ratio” value in test [1] (Date 4/21/95) worked out at 12.4. Further, the Ki at FKBP12 is 2800 nM.
For `COc1cccc2c1C(=O)c1c(O)c3c(c(O)c1C2=O)C[C@@](O)(C(=O)CO)C[C@@H]3O[C@H]1C[C@H](N)[C@H](O)[C@H](C)O1` [DXR, doxorubicin, reference compound], the IC50 in test [1] (L1210, read-out: IC50 DXR Alone, Date 4/21/95) is 2100 nM; in test [1] (L1210, read-out: IC50 DXR Alone, Date 5/12/95), 700 nM.
For `C=CC[C@@H]1/C=C(\C)C[C@H](C)C[C@H](OC)[C@H]2O[C@@](O)(C(=O)C(=O)N3CCCC[C@H]3C(=O)O[C@H](/C(C)=C/[C@@H]3CC[C@@H](O)[C@H](OC)C3)[C@H](C)[C@@H](O)CC1=O)[C@H](C)C[C@@H]2OC` [FK506], the “sensitization of MDR cells / activity against multi-drug resistance” value in test [2] was “effective against multi-drug resistance”. Besides, the neurite outgrowth result in test [3] is “acts synergistically”. Also, the neurotrophic effects entry in the test with sensory ganglia is reported as “demonstrated similar neurotrophic effects”. Besides, the “binding to FKBP12” value in test [4] was “have the ability to bind”. For the same compound, in the test on nerve cells, the “stimulation of neurite outgrowth” value is reported as “effective in stimulating neurite outgrowth”.
In the case of `CO[C@H]1C[C@@H]2CC[C@@H](C)[C@@](O)(O2)C(=O)C(=O)N2CCCC[C@H]2C(=O)O[C@H]([C@H](C)C[C@@H]2CC[C@@H](O)[C@H](OC)C2)CC(=O)[C@H](C)/C=C(\C)[C@@H](O)[C@@H](OC)C(=O)[C@H](C)C[C@H](C)/C=C/C=C/C=C/1C` [rapamycin], the neurite outgrowth result in test [3] was “did not inhibit the effects of FK-506 on neurite outgrowth, but rather was neurotrophic itself, displaying an additive effect with FK-506”. Moreover, the neurotrophic effects entry in the test on sensory ganglia is reported as “those effects were blocked by rapamycin”. Further, the “binding to FKBP12” value in test [4] is reported as “have the ability to bind”.

The values are drawn from US5935954A, “Compounds with improved multi-drug resistance activity” (Vertex Pharmaceuticals Incorporated, priority 1997, dated 1999).
